Data on seven compounds can be found in the supplement of paper PMC11061612.

Assay in all cases: combination Emax (second highest fraction inhibited in the dose matrix, 72 h); higher = more inhibition; extreme values may be limits of the assay
The test system of experiment [1] is AMO-1 (Plasma Cell Myeloma). A digest of the protocol:
(§1)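 Cell lines grown in DMEM/F12 or RPMI with 10% FBS were plated in 1536-well plates and held 24 hours at 37°C, 5% CO2 before 72 hours of exposure to two-drug dose matrices, with DMSO typically at 0.2%. CellTiter-Glo 2.0 luminescence gave viability, which was converted to inhibition. Vehicle wells were set to 0 and blank wells to 1. Combination Emax is the second-highest inhibition in the matrix, and Bliss excess is the observed combination effect minus the expected EA + EB − EA·EB, where EA and EB are the single-agent effects.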

For experiment [2], the system named is C-4-I (Cervical Carcinoma). A digest of the protocol: as §1
Experiment [3] concerns Ca9-22 (Head and Neck Carcinoma). A digest of the protocol: as §1
Experiment [4] has as its system Caov-4 (Ovarian Carcinoma). The gist of the method: as §1
Experiment [5] relates to D-263MG (Glioblastoma). The gist of the method: as §1
Experiment [6] relates to EFM-19 (Breast Carcinoma). The gist of the method:
as §1

Experiment [7] has as its system LU-65 (Non-Small Cell Lung Carcinoma). A digest of the protocol: as §1
The test system of experiment [8] is MIA-PaCa-2 (Pancreatic Carcinoma). A digest of the protocol:
as §1

For experiment [9], the system named is MLMA (Other Blood Carcinomas). A digest of the protocol:
as §1

Experiment [10] concerns NEC8 (Other Solid Carcinomas). The gist of the method: as §1
For experiment [11], the system named is NUGC-3 (Gastric Carcinoma). The gist of the method: as §1
In experiment [12] the test system is OSC-20 (Oral Cavity Carcinoma). A digest of the protocol:
as §1

The subject of experiment [13] is PANC-04-03 (Pancreatic Carcinoma). A digest of the protocol:
as §1

For experiment [14], the system named is PWR-1E (Non-Cancerous). A digest of the protocol:
as §1

The test system of experiment [15] is SU8686 (Pancreatic Carcinoma). The gist of the method:
as §1

Experiment [16] deals with SW13 (Other Solid Carcinomas). A digest of the protocol:
as §1

Experiment [17] relates to TGW (Neuroblastoma). The gist of the method: as §1
The test system of experiment [18] is TK10 (Kidney Carcinoma). The gist of the method:
as §1

Experiment [19] concerns VA-ES-BJ (Other Solid Carcinomas). The gist of the method:
as §1

For experiment [20], the system named is YH-13 (Glioblastoma). The gist of the method: as §1

With `Cc1c2c(nn1C)CSCc1cc(n(C)n1)CSc1cc(c3ccccc3c1)OCCCc1c(C(=O)O)n(C)c3c-2c(Cl)ccc13` [AZD5991] + Cn1cnc2c(F)c(Nc3ccc(Br)cc3Cl)c(C(=O)NOCCO)cc21 [Selumetinib] (first compound max 1 µM, 7x7, partner max 3 µM), the “combination Emax” value was 1 in experiment [1]; 1 in experiment [2]; 0.581 in [3]; 0.856 in experiment [4]; 0.634 in [5]; 0.282 in [6]. Further, the “combination Emax” value in experiment [7] was found to be 0.716; in experiment [8] it was 0.623; in [9] it was 0.393; in [10], 0.383; in [11] it was 0.355; in [12], 0.276. In addition, the “combination Emax” value was 0.432 in [13]; 0.21 in [14]; 0.334 in experiment [15]; 0.828 in experiment [16]; 0.381 in experiment [17]; 0.454 in experiment [18]. The “combination Emax” value in experiment [19] is 0.184; in [20], 0.178.
Consider `C[C@@H]1COCCN1c1cc(C2([S@](C)(=N)=O)CC2)nc(-c2ccnc3[nH]ccc23)n1` [AZD6738] + O=C(c1cc(Cc2n[nH]c(=O)c3ccccc23)ccc1F)N1CCN(C(=O)C2CC2)CC1 [Olaparib] (first compound max 10 µM, 7x7, partner max 10 µM), for which the “combination Emax” value turned out to be 0.866 in experiment [1]; 0.875 in experiment [2]; 0.88 in experiment [3]; 0.969 in [4]; 0.981 in experiment [5]; 0.439 in [6]. In addition, the “combination Emax” value was determined as 0.751 in [7]; 0.708 in experiment [8]; 0.988 in experiment [9]; 0.764 in experiment [10]; 0.778 in [11]; 0.387 in experiment [12]. For the same compound, the “combination Emax” value was 0.515 in [13]; 0.842 in experiment [14]; 0.288 in experiment [15]; 0.451 in experiment [16]; 0.731 in [17]; 0.471 in [18]. The “combination Emax” value in experiment [19] is 0.64; in [20] it was 0.611.
Take `NC1(C(=O)N[C@@H](CCO)c2ccc(Cl)cc2)CCN(c2ncnc3[nH]ccc23)CC1` [Capivasertib] + CC(=O)c1c(C)c2cnc(Nc3ccc(N4CCNCC4)cn3)nc2n(C2CCCC2)c1=O [Palbociclib] (first compound max 10 µM, 7x7, partner max 10 µM): the “combination Emax” value in [1] came out at 0.743; in experiment [2], 0.519; in experiment [3], 0.442; in experiment [4], 0.377; in [5] it was 0.448; in [6], 0.481. Also, the “combination Emax” value in experiment [7] is 0.448; in experiment [8], 0.451; in [9], 0.515; in experiment [10], 0.187; in experiment [11] it was 0.592; in experiment [12], 0.279. Further, the “combination Emax” value in experiment [13] came to 0.261; in [14], 0.535; in experiment [15] it was 0.07; in experiment [16], 0.261; in experiment [17] it was 0.378; in experiment [18], 0.516. In addition, the entries for the “combination Emax” value in experiment [19] and in experiment [20] were 0.458 and 0.609, respectively.
In the case of `NC1(C(=O)N[C@@H](CCO)c2ccc(Cl)cc2)CCN(c2ncnc3[nH]ccc23)CC1` [Capivasertib] + CC(C)n1c(=O)n(C)c2cnc3cc(F)c(-c4ccc(OCCCN5CCCCC5)nc4)cc3c21 [AZD1390] (first compound max 10 µM, 7x7, partner max 0.3 µM), the “combination Emax” value is 0.633 in [1]; 0.237 in [2]; 0.286 in experiment [3]; 0.245 in experiment [4]; 0.249 in experiment [5]; 0.469 in experiment [6]. For the same compound, the “combination Emax” value in [7] amounted to 0.401; in experiment [8], 0.188; in [9] it was 0.452; in experiment [10], 0.144; in [11], 0.339; in experiment [12] it was 0.256. Further, the “combination Emax” value came out at 0.318 in experiment [13]; 0.4 in [14]; 0.113 in experiment [15]; 0.35 in [16]; 0.172 in experiment [17]; 0.411 in [18]. In addition, the “combination Emax” value in experiment [19] came out at 0.307; in [20] it was 0.541.
As to `NC1(C(=O)N[C@@H](CCO)c2ccc(Cl)cc2)CCN(c2ncnc3[nH]ccc23)CC1` [Capivasertib] + CCN(CCO)CCCOc1ccc2c(Nc3cc(CC(=O)Nc4cccc(F)c4)[nH]n3)ncnc2c1 [AZD2811] (first compound max 10 µM, 7x7, partner max 1 µM), the “combination Emax” value in experiment [1] was 0.769; in experiment [2], 0.402; in experiment [3], 0.445; in experiment [4] it was 0.383; in [5], 0.455; in experiment [6], 0.586. Also, the “combination Emax” value in experiment [7] came out at 0.461; in experiment [8], 0.418; in experiment [9] it was 0.461; in experiment [10], 0.199; in [11], 0.448; in experiment [12] it was 0.387. The “combination Emax” value in [13] is 0.305; in experiment [14] it was 0.713; in experiment [15] it was 0.121; in [16] it was 0.515; in experiment [17], 0.273; in [18] it was 0.403. The “combination Emax” value was found to be 0.49 in [19] and 0.627 in experiment [20].
`NC1(C(=O)N[C@@H](CCO)c2ccc(Cl)cc2)CCN(c2ncnc3[nH]ccc23)CC1` [Capivasertib] + COc1nnc2ccc(N3CCC(c4ccc(OCCN5CCN(C)C(=O)[C@H]5C)cc4)CC3)nn12 [AZD5153] (first compound max 10 µM, 7x7, partner max 1 µM): the “combination Emax” value in experiment [1] is 0.911; in experiment [2], 0.749; in experiment [3], 0.799; in experiment [4] it was 0.526; in [5] it was 0.562; in experiment [6], 0.538. In addition, the “combination Emax” value in experiment [7] was 0.536; in experiment [8], 0.813; in [9], 0.994; in experiment [10] it was 0.951; in [11] it was 0.617; in experiment [12], 0.296. Moreover, the “combination Emax” value in [13] stood at 0.495; in experiment [14], 0.861; in experiment [15], 0.0398; in experiment [16], 0.389; in experiment [17] it was 0.867; in experiment [18], 0.63. In addition, the “combination Emax” value in experiment [19] turned out to be 0.487; in [20], 0.723.
As to `NC1(C(=O)N[C@@H](CCO)c2ccc(Cl)cc2)CCN(c2ncnc3[nH]ccc23)CC1` [Capivasertib] + C[C@@H]1COCCN1C2=NC(=NC(=C2)C3(CC3)[S@](=N)(=O)C)C4=C5C=CNC5=NC=C4 [AZD6738] (first compound max 10 µM, 7x7, partner max 10 µM), the “combination Emax” value in [1] amounted to 0.903; in experiment [2], 0.913; in [3] it was 0.872; in [4] it was 0.825; in [5], 0.442; in experiment [6], 0.526. For the same compound, the “combination Emax” value turned out to be 0.632 in [7]; 0.542 in experiment [8]; 0.771 in [9]; 0.799 in experiment [10]; 0.74 in experiment [11]; 0.431 in experiment [12]. The “combination Emax” value in experiment [13] was 0.575; in experiment [14], 0.947; in experiment [15], 0.166; in experiment [16], 0.712; in experiment [17], 0.614; in experiment [18], 0.605. Moreover, the results for the “combination Emax” value in [19] and in experiment [20] were 0.729 and 0.648, respectively.
